Values quoted from earlier work in patent US20140356423A1, “FORMULATIONS OF LYCOPENE IN COMBINATION WITH BISPHOSPHONATES BONE RESORPTION INHIBITORS” (priority 2013, published 2014).
Read-outs that look alike come from different tables or passages of the source.

Columns and labels:
[1] = tablet not taken with enough water, or patient not upright for approximately one-half hour after taking
[2] = taken either concurrently with or 2 hours after breakfast
[3] = test system: alkaline phosphatase activity
[4] = test system: osteoblast-like SaOS-2 cells

For `NCCCC(O)(P(=O)(O)O)P(=O)(O)O` [alendronate, 4-amino-1-hydroxybutylidene-1,1-biphosphonic acid], the side effects [1] is given as “esophageal irritation and erosion” and the impairment of availability [2] is given as greater than 85%.
In the case of `CC(C)=CCC/C(C)=C/C=C/C(C)=C/C=C/C(C)=C/C=C/C=C(C)/C=C/C=C(C)/C=C/C=C(\C)CCC=C(C)C` [lycopene], the alkaline phosphatase activity ([3]; more mature cells grown in the presence of dexamethasone (SaOS+Dex cells)) is given as “stimulate alkaline phosphatase activity”, the alkaline phosphatase activity ([3]; younger cells grown in the absence of dexamethasone (SaOS-Dex cells), depending on the time of addition) is given as “inhibited or had no effect” and the “proliferation of osteoblast-like SaOS-2 cells” value [4] is given as “stimulated the proliferation”.
